According to US6518243B1, “Desleucyl glycopeptide antibiotics and methods of making same” (Trustees of Princeton University, priority 1999, dated 2003):

Key:
E. faecalis (CL 4877) = assay: Zone of inhibition screen, 96 well agar array format; type: cell-based; set-up: scale not given here
Summary of the method: (§1)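 Read-out is antibacterial activity on agar laid out as a 96-well array; every compound went through all strains of the panel.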

[1] = test system: S. epidermidis (ATCC 12228); assay: as above; type: cell-based; set-up: scale not given here
Summary of the method: as §1

[2] = zone of inhibition relative to 1 mg/ml p-chlorobiphenylvancomycin
[3] = zone of inhibition relative to 1 mg/ml stock solution of p-chlorobiphenylvancomycin

Row | Structure (SMILES) | zone score, E. faecalis CL 4877 (E. faecalis (CL 4877); [2]) | zone score, S. epidermidis ATCC 12228 [1, 2] | zone score, E. faecalis CL 4877 (E. faecalis (CL 4877); [3]) | zone score, S. epidermidis ATCC 12228 [1, 3]
1 | CC(NC=O)C(=O)NC1C(=O)NC(CC(N)=O)C(=O)NC2C(=O)NC3C(=O)NC(C(=O)NC(C(=O)O)c4cc(O)cc(O)c4-c4cc3ccc4O)C(O)c3ccc(c(Cl)c3)Oc3cc2cc(c3OC2OC(CO)C(O)C(O)C2OC2CC(C)(NCc3ccc(-c4ccc(Cl)cc4)cc3)C(O)C(C)O2)Oc2ccc(cc2Cl)C1O (mixture of isomers) [Compound 325] | 2 | 2 | – | –
2 | CC1OC(OC2C(Oc3c4cc5cc3Oc3ccc(cc3Cl)C(O)C3NC(=O)C(NC(=O)C5NC(=O)C(CC(N)=O)NC(=O)C(NC(=O)C(N)CC(N)=O)C(O)c5ccc(c(Cl)c5)O4)c4ccc(O)c(c4)-c4c(O)cc(O)cc4C(C(=O)O)NC3=O)OC(CO)C(O)C2O)CC(C)(NCc2ccc(-c3ccc(Cl)cc3)cc2)C1O (centres unmarked) [Compound 53] | – | – | 2 | 2
3 | CC1OC(OC2C(Oc3c4cc5cc3Oc3ccc(cc3Cl)C(O)C3NC(=O)C(NC(=O)C5NC(=O)C(CC(N)=O)NC(=O)C(NC(=O)C[N+](C)(C)C)C(O)c5ccc(c(Cl)c5)O4)c4ccc(O)c(c4)-c4c(O)cc(O)cc4C(C(=O)O)NC3=O)OC(CO)C(O)C2O)CC(C)(NCc2ccc(-c3ccc(Cl)cc3)cc2)C1O (centres unmarked) [Compound 129] | – | – | 2 | 2
4 | CC1OC(OC2C(Oc3c4cc5cc3Oc3ccc(cc3Cl)C(O)C3NC(=O)C(NC(=O)C5NC(=O)C(CC(N)=O)NC(=O)C(NC(=O)CC(NC(=O)OC(C)(C)C)C(N)=O)C(O)c5ccc(c(Cl)c5)O4)c4ccc(O)c(c4)-c4c(O)cc(O)cc4C(C(=O)O)NC3=O)OC(CO)C(O)C2O)CC(C)(NCc2ccc(-c3ccc(Cl)cc3)cc2)C1O (centres unmarked) [Compound 134] | – | – | 2 | 2
5 | CC1OC(OC2C(Oc3c4cc5cc3Oc3ccc(cc3Cl)[C@@H](O)[C@@H](NC(=O)/C=C\C(N)=O)C(=O)N[C@@H](CC(N)=O)C(=O)N[C@H]5C(=O)NC3C(=O)N[C@H](C(=O)N[C@@H](C(=O)O)c5cc(O)cc(O)c5-c5cc3ccc5O)[C@H](O)c3ccc(c(Cl)c3)O4)OC(CO)C(O)C2O)CC(C)(NCc2ccc(-c3ccc(Cl)cc3)cc2)C1O (some centres unmarked) [Compound 170] | – | – | 2 | 2
6 | CSCCC(NC(C)=O)C(=O)NC1C(=O)NC(CC(N)=O)C(=O)NC2C(=O)NC3C(=O)NC(C(=O)NC(C(=O)O)c4cc(O)cc(O)c4-c4cc3ccc4O)C(O)c3ccc(c(Cl)c3)Oc3cc2cc(c3OC2OC(CO)C(O)C(O)C2OC2CC(C)(NCc3ccc(-c4ccc(Cl)cc4)cc3)C(O)C(C)O2)Oc2ccc(cc2Cl)C1O (centres unmarked) [Compound 182] | – | – | 2 | 2
7 | CC1OC(OC2C(Oc3c4cc5cc3Oc3ccc(cc3Cl)C(O)C3NC(=O)C(NC(=O)C5NC(=O)C(CC(N)=O)NC(=O)C(NC(=O)CNC=O)C(O)c5ccc(c(Cl)c5)O4)c4ccc(O)c(c4)-c4c(O)cc(O)cc4C(C(=O)O)NC3=O)OC(CO)C(O)C2O)CC(C)(NCc2ccc(-c3ccc(Cl)cc3)cc2)C1O (centres unmarked) [Compound 193] | – | – | 2 | 2
8 | CC1OC(OC2C(Oc3c4cc5cc3Oc3ccc(cc3Cl)C(O)C3NC(=O)C(NC(=O)C5NC(=O)C(CC(N)=O)NC(=O)C(NC(=O)Cn5cnnn5)C(O)c5ccc(c(Cl)c5)O4)c4ccc(O)c(c4)-c4c(O)cc(O)cc4C(C(=O)O)NC3=O)OC(CO)C(O)C2O)CC(C)(NCc2ccc(-c3ccc(Cl)cc3)cc2)C1O (centres unmarked) [Compound 228] | 2 | 2 | – | –
9 | CC1OC(OC2C(Oc3c4cc5cc3Oc3ccc(cc3Cl)C(O)C3NC(=O)C(NC(=O)C5NC(=O)C(CC(N)=O)NC(=O)C(NC(=O)c5cccnc5N)C(O)c5ccc(c(Cl)c5)O4)c4ccc(O)c(c4)-c4c(O)cc(O)cc4C(C(=O)O)NC3=O)OC(CO)C(O)C2O)CC(C)(NCc2ccc(-c3ccc(Cl)cc3)cc2)C1O (centres unmarked) [Compound 237] | 2 | 2 | – | –
10 | CC1OC(OC2C(Oc3c4cc5cc3Oc3ccc(cc3Cl)C(O)C3NC(=O)C(NC(=O)C5NC(=O)C(CC(N)=O)NC(=O)C(NC(=O)c5cccc(C(F)(F)F)c5)C(O)c5ccc(c(Cl)c5)O4)c4ccc(O)c(c4)-c4c(O)cc(O)cc4C(C(=O)O)NC3=O)OC(CO)C(O)C2O)CC(C)(NCc2ccc(-c3ccc(Cl)cc3)cc2)C1O (centres unmarked) [Compound 247] | 2 | 2 | – | –
11 | CC1OC(OC2C(Oc3c4cc5cc3Oc3ccc(cc3Cl)C(O)C3NC(=O)C(NC(=O)C5NC(=O)C(CC(N)=O)NC(=O)C(NC(=O)c5cccc(O)n5)C(O)c5ccc(c(Cl)c5)O4)c4ccc(O)c(c4)-c4c(O)cc(O)cc4C(C(=O)O)NC3=O)OC(CO)C(O)C2O)CC(C)(NCc2ccc(-c3ccc(Cl)cc3)cc2)C1O (centres unmarked) [Compound 277] | 2 | 2 | – | –
12 | CC(=O)NC1C(=O)NC(CC(N)=O)C(=O)NC2C(=O)NC3C(=O)NC(C(=O)NC(C(=O)O)c4cc(O)cc(O)c4-c4cc3ccc4O)C(O)c3ccc(c(Cl)c3)Oc3cc2cc(c3OC2OC(CO)C(O)C(O)C2OC2CC(C)(NCc3ccc(-c4ccc(Cl)cc4)cc3)C(O)C(C)O2)Oc2ccc(cc2Cl)C1O (centres unmarked) [Compound 279] | 2 | 2 | – | –
13 | CC1OC(OC2C(Oc3c4cc5cc3Oc3ccc(cc3Cl)C(O)C3NC(=O)C(NC(=O)C5NC(=O)C(CC(N)=O)NC(=O)C(NC(=O)c5ccccc5N)C(O)c5ccc(c(Cl)c5)O4)c4ccc(O)c(c4)-c4c(O)cc(O)cc4C(C(=O)O)NC3=O)OC(CO)C(O)C2O)CC(C)(NCc2ccc(-c3ccc(Cl)cc3)cc2)C1O (centres unmarked) [Compound 280] | 2 | 2 | – | –
14 | CC1NC(=O)NC1CCCCCC(=O)NC1C(=O)NC(CC(N)=O)C(=O)NC2C(=O)NC3C(=O)NC(C(=O)NC(C(=O)O)c4cc(O)cc(O)c4-c4cc3ccc4O)C(O)c3ccc(c(Cl)c3)Oc3cc2cc(c3OC2OC(CO)C(O)C(O)C2OC2CC(C)(NCc3ccc(-c4ccc(Cl)cc4)cc3)C(O)C(C)O2)Oc2ccc(cc2Cl)C1O (centres unmarked) [Compound 284] | 2 | 2 | – | –
15 | CCOC(=O)C=CC(=O)NC1C(=O)NC(CC(N)=O)C(=O)NC2C(=O)NC3C(=O)NC(C(=O)NC(C(=O)O)c4cc(O)cc(O)c4-c4cc3ccc4O)C(O)c3ccc(c(Cl)c3)Oc3cc2cc(c3OC2OC(CO)C(O)C(O)C2OC2CC(C)(NCc3ccc(-c4ccc(Cl)cc4)cc3)C(O)C(C)O2)Oc2ccc(cc2Cl)C1O (centres unmarked) [Compound 288] | 2 | 2 | – | –
16 | CC1OC(OC2C(Oc3c4cc5cc3Oc3ccc(cc3Cl)C(O)C3NC(=O)C(NC(=O)C5NC(=O)C(CC(N)=O)NC(=O)C(NC(=O)c5ccncc5)C(O)c5ccc(c(Cl)c5)O4)c4ccc(O)c(c4)-c4c(O)cc(O)cc4C(C(=O)O)NC3=O)OC(CO)C(O)C2O)CC(C)(NCc2ccc(-c3ccc(Cl)cc3)cc2)C1O (centres unmarked) [Compound 292] | 2 | 2 | – | –
17 | CC(O)C(=O)NC1C(=O)NC(CC(N)=O)C(=O)NC2C(=O)NC3C(=O)NC(C(=O)NC(C(=O)O)c4cc(O)cc(O)c4-c4cc3ccc4O)C(O)c3ccc(c(Cl)c3)Oc3cc2cc(c3OC2OC(CO)C(O)C(O)C2OC2CC(C)(NCc3ccc(-c4ccc(Cl)cc4)cc3)C(O)C(C)O2)Oc2ccc(cc2Cl)C1O (centres unmarked) [Compound 294] | 2 | 2 | – | –
18 | CC(=O)CCC(=O)NC1C(=O)NC(CC(N)=O)C(=O)NC2C(=O)NC3C(=O)NC(C(=O)NC(C(=O)O)c4cc(O)cc(O)c4-c4cc3ccc4O)C(O)c3ccc(c(Cl)c3)Oc3cc2cc(c3OC2OC(CO)C(O)C(O)C2OC2CC(C)(NCc3ccc(-c4ccc(Cl)cc4)cc3)C(O)C(C)O2)Oc2ccc(cc2Cl)C1O (centres unmarked) [Compound 295] | 2 | 2 | – | –
19 | CCOC(=O)C=CC(=O)NC1C(=O)NC(CC(N)=O)C(=O)NC2C(=O)NC3C(=O)NC(C(=O)NC(C(=O)O)c4cc(O)cc(O)c4-c4cc3ccc4O)C(O)c3ccc(c(Cl)c3)Oc3cc2cc(c3OC2OC(CO)C(O)C(O)C2OC2CC(C)(NCc3ccc(-c4ccc(Cl)cc4)cc3)C(O)C(C)O2)Oc2ccc(cc2Cl)C1O (centres unmarked) [Compound 296] | 2 | 2 | – | –
20 | CC1OC(OC2C(Oc3c4cc5cc3Oc3ccc(cc3Cl)C(O)C3NC(=O)C(NC(=O)C5NC(=O)C(CC(N)=O)NC(=O)C(NC(=O)CSCCS(=O)(=O)c5ccc(Cl)cc5)C(O)c5ccc(c(Cl)c5)O4)c4ccc(O)c(c4)-c4c(O)cc(O)cc4C(C(=O)O)NC3=O)OC(CO)C(O)C2O)CC(C)(NCc2ccc(-c3ccc(Cl)cc3)cc2)C1O (centres unmarked) [Compound 300] | 2 | 2 | – | –
21 | COC(=O)CCCC(=O)NC1C(=O)NC(CC(N)=O)C(=O)NC2C(=O)NC3C(=O)NC(C(=O)NC(C(=O)O)c4cc(O)cc(O)c4-c4cc3ccc4O)C(O)c3ccc(c(Cl)c3)Oc3cc2cc(c3OC2OC(CO)C(O)C(O)C2OC2CC(C)(NCc3ccc(-c4ccc(Cl)cc4)cc3)C(O)C(C)O2)Oc2ccc(cc2Cl)C1O (centres unmarked) [Compound 304] | – | 2 | – | –
22 | COC(=O)CCC(=O)NC1C(=O)NC(CC(N)=O)C(=O)NC2C(=O)NC3C(=O)NC(C(=O)NC(C(=O)O)c4cc(O)cc(O)c4-c4cc3ccc4O)C(O)c3ccc(c(Cl)c3)Oc3cc2cc(c3OC2OC(CO)C(O)C(O)C2OC2CC(C)(NCc3ccc(-c4ccc(Cl)cc4)cc3)C(O)C(C)O2)Oc2ccc(cc2Cl)C1O (centres unmarked) [Compound 305] | – | 2 | – | –
23 | CC1OC(OC2C(Oc3c4cc5cc3Oc3ccc(cc3Cl)C(O)C3NC(=O)C(NC(=O)C5NC(=O)C(CC(N)=O)NC(=O)C(NC(=O)Cc5cccs5)C(O)c5ccc(c(Cl)c5)O4)c4ccc(O)c(c4)-c4c(O)cc(O)cc4C(C(=O)O)NC3=O)OC(CO)C(O)C2O)CC(C)(NCc2ccc(-c3ccc(Cl)cc3)cc2)C1O (centres unmarked) [Compound 318] | – | 2 | – | –
24 | CC1OC(OC2C(Oc3c4cc5cc3Oc3ccc(cc3Cl)C(O)C3NC(=O)C(NC(=O)C5NC(=O)C(CC(N)=O)NC(=O)C(NC(=O)C(N)=O)C(O)c5ccc(c(Cl)c5)O4)c4ccc(O)c(c4)-c4c(O)cc(O)cc4C(C(=O)O)NC3=O)OC(CO)C(O)C2O)CC(C)(NCc2ccc(-c3ccc(Cl)cc3)cc2)C1O (centres unmarked) [Compound 327] | – | 2 | – | –
